Data published in US10195156B2, “Compounds and compositions for intracellular delivery of agents” (ModernaTX, Inc., priority 2015, dated 2019).

Experiments:
IP-10 = assay: Cytokine production induced by sample formulations: IP-10; assay type: in vivo; details: mice, i.v., 0.5 mpk, 6 hours; for IP-10: in pg/mL (unit assumed)
Excerpt: (§1) The introduction of foreign material into a mammalian body induces an innate immune response that promotes cytokine production. Such immune responses to, for example, nanoparticle compositions including therapeutic and/or prophylactic agents, are undesirable. The induction of certain cytokines is thus measured to evaluate the […] of nanoparticle compositions. The concentrations of various cytokines in mice upon intravenous administration of nanoparticle compositions presented in Tables 1, 1a, 17-1, 19-1, 20-1 and 21-1 at a dosage of 0.5 mpk was measured at 6 hours. The standard MC3 formulation and a PBS control were also tested.

[1] = system: luciferase (Luc) mRNA expression; assay: Expression of Luc induced by sample formulations, whole-body bioluminescence after intravenous administration; assay type: in vivo; details: mice, i.v., 0.5 mg/kg
Protocol: In order to monitor how effectively various nanoparticle compositions deliver therapeutic and/or prophylactic agents to targeted cells, different nanoparticle compositions including a particular therapeutic and/or prophylactic agent (for example, a modified or naturally occurring RNA such as an mRNA) are prepared and administered to rodent populations. Mice are intravenously, intramuscularly, intraarterially, or intratumorally administered a single dose including a nanoparticle composition with a formulation such as those provided in Table 1. In some instances, mice may be made to inhale doses. Dose sizes may range from 0.001 mg/kg to 10 mg/kg, where 10 mg/kg describes a dose including 10 mg of a therapeutic and/or prophylactic agent in a nanoparticle composition for each 1 kg of body mass of the mouse. A control composition including PBS may also be employed.
Upon administration of nanoparticle compositions to mice, dose delivery profiles, dose responses, and toxicity of particular formulations and doses thereof can be measured by enzyme-linked immunosorbent assays (ELISA), bioluminescent imaging, or other methods. For nanoparticle compositions including mRNA, time courses of protein expression can also be evaluated. Samples collected from the rodents for evaluation may include blood, sera, and tissue (for example, muscle tissue from the site of an intramuscular injection and internal tissue); sample collection may involve sacrifice of the animals.
The efficacy of the nanoparticle compositions presented in Tables 1, 1a, 17-1, 19-1, 20-1 and 21-1 was evaluated with a bioluminescence study. Formulations were administered intravenously to mice (n=6) at a dosage of 0.5 mg/kg (mpk) and bioluminescence measured at 3, 6, and 24 hour time points. The standard MC3 formulation and a PBS control were evaluated for comparison.

[2] = Encapsulation efficiency of RNA (QUANT-IT RIBOGREEN RNA assay); assay type: physicochemical; details: for encapsulation efficiency, rank within the named table (in words): comparison amongst compositions
Protocol: For nanoparticle compositions including an RNA, a QUANT-IT™ RIBOGREEN® RNA assay (Invitrogen Corporation Carlsbad, Calif.) can be used to evaluate the encapsulation of an RNA by the nanoparticle composition. The samples are diluted to a concentration of approximately 5 μg/mL in a TE buffer solution (10 mM Tris-HCl, 1 mM EDTA, pH 7.5). 50 μL of the diluted samples are transferred to a polystyrene 96 well plate and either 50 μL of TE buffer or 50 μL of a 2% Triton X-100 solution is added to the wells. The plate is incubated at a temperature of 37° C. for 15 minutes. The RIBOGREEN® reagent is diluted 1:100 in TE buffer, and 100 μL of this solution is added to each well. The fluorescence intensity can be measured using a fluorescence plate reader (Wallac Victor 1420 Multilablel Counter; Perkin Elmer, Waltham, Mass.) at an excitation wavelength of, for example, about 480 nm and an emission wavelength of, for example, about 520 nm. The fluorescence values of the reagent blank are subtracted from that of each of the samples and the percentage of free RNA is determined by dividing the fluorescence intensity of the intact sample (without addition of Triton X-100) by the fluorescence value of the disrupted sample (caused by the addition of Triton X-100).

IL-6 = assay: Cytokine production induced by sample formulations: IL-6; assay type: in vivo; details: mice, i.v., 0.5 mpk, 6 hours; for IL-6: in pg/mL (unit assumed)
Excerpt: as §1

[3] = Particle size and polydispersity index of nanoparticle compositions (Zetasizer Nano ZS); assay type: physicochemical; details: for particle size, rank within the named table (in words): comparison amongst compositions
Protocol: A Zetasizer Nano ZS (Malvern Instruments Ltd, Malvern, Worcestershire, UK) can be used to determine the particle size, the polydispersity index (PDI) and the zeta potential of the nanoparticle compositions in 1×PBS in determining particle size and 15 mM PBS in determining zeta potential.

[4] = system: modified luciferase expression; assay: Expression of Luc in different organs (liver, lung, spleen, femur) 6 hours after intravenous administration; assay type: in vivo; details: i.v., 0.5 mpk
Protocol: The efficacy of the nanoparticle compositions presented in Tables 1, 1a, 17-1, 19-1, 20-1 and 21-1 was further evaluated by measuring the expression of modified luciferase in the liver, lung, spleen, and femur upon administration of a given composition. Formulations were administered intravenously to mice (n=3) at a dosage of 0.5 mpk and bioluminescence measured after 6 hours. The standard MC3 formulation and a PBS control were also tested.

[5] = pKa of nanoparticle compositions; assay type: physicochemical
[6] = Table 1, rows without footnote mark
[7] = Table 1, rows without footnote mark (lipid:DOPE:cholesterol:PEG-DMG 40:20:38.5:1.5, Luc mRNA; MC3 standard formulation)

| SMILES | IP-10 induction, rank or comparison with IL-6 (in words) (IP-10) | IL-6 induction, rank within the named table (in words) (IL-6) | IP-10 (IP-10; Table 17-4) | Total Flux 3 hours ([1]; Table 17-2) | Total Flux 6 hours ([1]; Table 17-2) | Total Flux 24 hours ([1]; Table 17-2) | EE (%) ([2]; Table 17-1) | IL-6 (IL-6; Table 17-4) | PDI ([3]; Table 17-1) | Size (nm) ([3]; Table 17-1) | Total Flux Liver ([4]; Table 17-3, mice, liver) | Total Flux Lung ([4]; Table 17-3, mice) | Total Flux Spleen ([4]; Table 17-3, mice) | pKa ([5]; Table 17-1) | other results |
| --- | --- | --- | --- | --- | --- | --- | --- | --- | --- | --- | --- | --- | --- | --- | --- |
| CCCCCCCCCCCCCCN(CCCCCCCCCCCCCC)CCN(CCCCCCCCCCCCCC)CCN1CCN(CCN(CCCCCCCCCCCC)CCCCCC(=O)OCCCCC)CC1 [Compound 13, Pentyl 6-((2-(4-(2-((2-(ditetradecylamino)ethyl)(tetradecyl)amino)ethyl)piperazin-1-yl)ethyl)(dodecyl)amino)hexanoate] | highest expression | highest expression | – | – | – | – | – | – | – | – | – | – | – | – | IP-10 (IP-10; Table 4): 7266; Total Flux 3 hours ([1]; Table 2): 3.59E+09; Total Flux 6 hours ([1]; Table 2): 3.80E+09; Total Flux 24 hours ([1]; Table 2): 3.11E+08; EE (%) [2, 6]: 64.2%; IL-6 (IL-6; Table 4): 301; PDI [3, 6]: 0.080; Size (nm) [3, 7]: 97.7 nm; Total Flux Femur ([4]; Table 3, mice): 1.99E+06; Total Flux Liver ([4]; Table 3, mice, liver): 6.10E+08; Total Flux Lung ([4]; Table 3, mice): 2.89E+06; Total Flux Spleen ([4]; Table 3, mice): 3.63E+07; pKa [5, 6]: 6.30 |
| CCCCCCCCCCCCN(CCCCCCCCCCCC)CCN1CCN(CCN(CCCCCC)CCN(CCCCCC)CCCCCC)CC1 [Compound 17, N^1-(2-(4-(2-(Didodecylamino)ethyl)piperazin-1-yl)ethyl)-N^1,N^2,N^2-trihexylethane-1,2-diamine] | – | – | – | – | – | – | – | – | – | – | – | – | – | – | IP-10 (IP-10; Table 4): 545; Total Flux 3 hours ([1]; Table 2): 7.55E+09; Total Flux 6 hours ([1]; Table 2): 2.49E+09; Total Flux 24 hours ([1]; Table 2): 7.61E+08; EE (%) [2, 6]: 96.6%; IL-6 (IL-6; Table 4): 164; PDI [3, 6]: 0.180; Size (nm) [3, 7]: 82.3 nm; Total Flux Femur ([4]; Table 3, mice): 6.71E+05; Total Flux Liver ([4]; Table 3, mice, liver): 4.26E+08; Total Flux Lung ([4]; Table 3, mice): 7.26E+05; Total Flux Spleen ([4]; Table 3, mice): 3.20E+06; pKa [5, 6]: 6.67 |
| CCCCC/C=C\C/C=C\CCCCCCCCN(CCO)CCCCCC [Compound 17-2, 2-(Hexyl((9Z,12Z)-octadeca-9,12-dien-1-yl)amino)ethan-1-ol] | lowest IP-10 levels | lowest IL-6 levels | 72.8 | 2.83E+05 | 3.76E+05 | 2.64E+05 | 57.2 | 9.88 | 0.104 | 136.9 | 6.42E+04 | 1.96E+04 | 4.16E+04 | 6.92 | encapsulation efficiency, rank within the named table (in words) [2]: did not encapsulate RNA with high efficiency; particle size, rank within the named table (in words) [3]: largest particles |
| CCCCC/C=C\C/C=C\CCCCCCCCN(CCO)CCCCCCCCC [Compound 17-3, 2-(Nonyl((9Z,12Z)-octadeca-9,12-dien-1-yl)amino)ethan-1-ol] | lowest IP-10 levels | lowest IL-6 levels | 66.8 | 5.58E+05 | 1.38E+06 | 9.90E+05 | 82.1 | 6.97 | 0.095 | 117.9 | 2.51E+05 | 1.56E+04 | 1.02E+05 | 6.69 | – |
| CCCCC/C=C\C/C=C\CCCCCCCCN(CCO)CCCCCCCCCCCC [Compound 17-4, 2-(Dodecyl((9Z,12Z)-octadeca-9,12-dien-1-yl)amino)ethan-1-ol] | highest IL-6 and IP-10 levels | highest IL-6 and IP-10 levels | 560 | 1.22E+09 | 3.60E+08 | 6.05E+07 | 94.5 | 80.7 | 0.154 | 95.6 | 8.00E+07 | 1.95E+05 | 2.30E+06 | 6.34 | total flux / Luc expression, rank within the named table (in words) ([1]; each time point): substantially higher flux than compositions including Compounds 17-2, 17-3, and 17-7; total flux in the spleen, rank within the named table (in words) ([4]; mice): highest |
| CCCCC/C=C\C/C=C\CCCCCCCCN(CCO)CCCCCCCCCCCCCC [Compound 17-5, 2-(((9Z,12Z)—Octadeca-9,12-dien-1-yl)(tetradecyl)amino)ethan-1-ol] | – | – | 300 | 6.64E+08 | 8.54E+08 | 5.97E+07 | 94.2 | 49.2 | 0.137 | 88.4 | 1.17E+08 | 8.13E+05 | 2.13E+06 | 6.92 | total flux in the liver, rank within the named table (in words) ([4]; mice, liver): somewhat comparable to those including MC3; total flux in the spleen, rank within the named table (in words) ([4]; mice): highest |
| CCCCC/C=C\C/C=C\CCCCCCCCN(CCO)CCCCCCCCCCCCCCCCCC [Compound 17-6, 2-(((9Z,12Z)—Octadeca-9,12-dien-1-yl)(octadecyl)amino)ethan-1-ol] | – | – | 134 | 6.27E+07 | 1.19E+08 | 1.27E+07 | 97.3 | 25.0 | 0.117 | 80.2 | 2.16E+07 | 1.54E+05 | 9.06E+05 | 6.73 | encapsulation efficiency, rank within the named table (in words) [2]: comparable to that for MC3 |
| CCCCCCCCCCCCCCN(CCO)CCCCCCCCCCCCCC [Compound 17-7, 2-(Ditetradecylamino)ethan-1-ol] | – | – | 100 | 4.68E+05 | 6.82E+05 | 5.46E+05 | 95.6 | 49.9 | 0.110 | 68.5 | 7.44E+04 | 1.35E+04 | 3.46E+04 | 5.68 | particle size, rank within the named table (in words) [3]: smallest particles |
